Columns and labels:
MERTK = molecular target: T1, MERTK (Homo sapiens, UniProt Q12866); assay: TR-FRET kinase activity assay, MERTK; type: biochemical; conditions: for IC50: TR-FRET activity assay, ATP at Km, 60 minutes, read-out: Mer IC50
T1 sequence (Q12866 21-999): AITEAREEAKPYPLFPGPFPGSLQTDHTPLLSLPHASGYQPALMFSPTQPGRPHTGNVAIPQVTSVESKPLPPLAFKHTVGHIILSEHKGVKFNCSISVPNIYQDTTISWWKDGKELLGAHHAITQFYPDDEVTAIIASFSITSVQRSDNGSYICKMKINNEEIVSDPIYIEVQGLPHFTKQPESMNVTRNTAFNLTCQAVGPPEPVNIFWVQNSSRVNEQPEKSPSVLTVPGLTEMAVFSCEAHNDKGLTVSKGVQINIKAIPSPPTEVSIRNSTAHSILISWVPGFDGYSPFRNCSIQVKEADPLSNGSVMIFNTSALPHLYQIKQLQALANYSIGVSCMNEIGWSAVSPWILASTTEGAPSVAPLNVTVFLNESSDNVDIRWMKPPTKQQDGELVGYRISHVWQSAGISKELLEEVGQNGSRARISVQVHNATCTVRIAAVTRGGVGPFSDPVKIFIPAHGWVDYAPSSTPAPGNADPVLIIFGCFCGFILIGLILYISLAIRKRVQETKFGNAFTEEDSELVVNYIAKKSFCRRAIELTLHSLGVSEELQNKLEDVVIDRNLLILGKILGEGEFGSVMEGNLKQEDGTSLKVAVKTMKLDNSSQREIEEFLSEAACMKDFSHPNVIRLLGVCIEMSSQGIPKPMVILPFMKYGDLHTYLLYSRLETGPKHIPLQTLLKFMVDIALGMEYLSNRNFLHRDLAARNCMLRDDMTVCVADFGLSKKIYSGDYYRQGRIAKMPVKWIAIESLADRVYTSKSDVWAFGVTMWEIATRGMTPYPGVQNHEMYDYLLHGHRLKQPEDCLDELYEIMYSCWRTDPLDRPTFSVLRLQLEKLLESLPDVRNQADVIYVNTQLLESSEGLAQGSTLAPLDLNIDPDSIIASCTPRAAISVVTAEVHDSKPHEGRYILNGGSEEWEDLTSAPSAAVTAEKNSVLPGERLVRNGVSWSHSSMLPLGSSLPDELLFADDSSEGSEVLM
Outline: (§1)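 Enzyme + labelled peptide + cpd premixed; ATP at per-enzyme Km starts rxn. 60 min RT, HEPES pH 7.5/MgCl2/EGTA/Brij 35/DTT buffer. Stop 12.5 mM EDTA, Eu phospho-Ab 30 min dark, TR-FRET read → IC50.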

TYRO3 = molecular target: T2, TYRO3 (Homo sapiens, UniProt Q06418); assay: TR-FRET kinase activity assay, TYRO3; type: biochemical; conditions: ATP at Km, 60 minutes
T2 sequence (Q06418 41-890): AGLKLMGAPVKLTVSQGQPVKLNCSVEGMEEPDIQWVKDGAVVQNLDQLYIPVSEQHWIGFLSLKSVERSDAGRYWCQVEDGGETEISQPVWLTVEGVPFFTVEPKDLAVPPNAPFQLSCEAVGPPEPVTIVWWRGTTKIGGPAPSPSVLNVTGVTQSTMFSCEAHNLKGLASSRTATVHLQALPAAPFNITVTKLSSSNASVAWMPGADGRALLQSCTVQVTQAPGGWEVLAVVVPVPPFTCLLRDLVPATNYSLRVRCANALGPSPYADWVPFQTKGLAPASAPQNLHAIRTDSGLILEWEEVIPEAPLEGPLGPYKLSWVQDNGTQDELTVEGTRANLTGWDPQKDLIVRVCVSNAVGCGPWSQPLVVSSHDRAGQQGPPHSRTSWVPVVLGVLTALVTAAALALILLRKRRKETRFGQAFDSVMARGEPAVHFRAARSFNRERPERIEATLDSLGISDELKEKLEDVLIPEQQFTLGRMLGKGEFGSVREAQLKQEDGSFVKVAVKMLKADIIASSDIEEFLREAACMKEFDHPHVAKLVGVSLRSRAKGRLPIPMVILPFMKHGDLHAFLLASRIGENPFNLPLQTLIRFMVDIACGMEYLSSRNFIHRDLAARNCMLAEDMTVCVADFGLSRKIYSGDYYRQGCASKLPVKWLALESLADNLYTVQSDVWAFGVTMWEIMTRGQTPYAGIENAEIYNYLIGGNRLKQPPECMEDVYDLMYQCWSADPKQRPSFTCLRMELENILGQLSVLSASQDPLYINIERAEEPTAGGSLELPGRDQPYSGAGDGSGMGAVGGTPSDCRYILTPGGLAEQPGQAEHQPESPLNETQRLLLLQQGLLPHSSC
Outline: as §1

[1] = ratio of Mer to FLT3: FLT3 IC50/Mer IC50
[2] = ratio calculated as FLT3 IC50/Mer IC50

Row | IC50 (MERTK) | IC50 (TYRO3) | FLT3/Mer ratio (FLT3 IC50/Mer IC50) (MERTK; [2]) | SMILES | FLT3/Mer ratio (FLT3 IC50/Mer IC50) (MERTK; [1])
1 | ≤ 100 nM | 100 to 1000 nM |  | COC[C@H](C)Nc1ncc2c(-c3cnccc3C)cc([C@H]3CC[C@H](O)CC3)n2n1 [Compound 168] | +++ (“+++” represents a ratio of >100)
2 | ≤ 100 nM | ≤ 100 nM |  | COC[C@H](C)Nc1ncc2c(-c3ccc(C#N)c(F)c3)cc([C@H]3CC[C@H](O)CC3)n2n1 [Compound 169] | +++ (“+++” represents a ratio of >100)
3 | ≤ 100 nM | ≤ 100 nM |  | COC[C@H](C)Nc1ncc2c(-c3ccc(C4(C(=O)N5CCOCC5)CC4)cc3)cc([C@H]3CC[C@H](O)CC3)n2n1 [Compound 171] | ++ (“++” represents a ratio of between 10 and 100)
4 | ≤ 100 nM | ≤ 100 nM |  | COCC(C)Nc1ncc2c(-c3ccc(C4(C(=O)N5CCS(=O)(=O)CC5)CC4)cc3)cc(C3CCC(O)CC3)n2n1 (stereo not drawn) [Compound 172] | ++ (“++” represents a ratio of between 10 and 100)
5 | ≤ 100 nM | ≤ 100 nM |  | COC[C@H](C)Nc1ncc2c(-c3ccc(C4(C(=O)O)CC4)cc3)cc([C@H]3CC[C@H](O)CC3)n2n1 [Compound 173] | +++ (“+++” represents a ratio of >100)
6 | ≤ 100 nM | ≤ 100 nM |  | COC[C@H](C)Nc1ncc2c(-c3cnn(CC(=O)NS(C)(=O)=O)c3)cc([C@H]3CC[C@H](O)CC3)n2n1 [Compound 174] | +++ (“+++” represents a ratio of >100)
7 | 100 to 1000 nM | 1000 to 10000 nM |  | COC[C@H](C)N(C)c1ncc2c(-c3ccnc(C)c3)cc([C@H]3CC[C@H](O)CC3)n2n1 [Compound 175, (trans)-4-(2-(((S)-1-methoxypropan-2-yl)(methyl)amino)-5-(2-methylpyridin-4-yl)pyrrolo[2,1-f][1,2,4]triazin-7-yl)cyclohexanol] | ++ (“++” represents a ratio of between 10 and 100)
8 | 1000 to 10000 nM | 1000 to 10000 nM |  | COC[C@H](C)N(C)c1ncc2c(-c3ccnc(C)c3)cc([C@H]3CC[C@H](OC)CC3)n2n1 [Compound 176, 7-((trans)-4-methoxycyclohexyl)-N-((S)-1-methoxypropan-2-yl)-N-methyl-5-(2-methylpyridin-4-yl)pyrrolo[2,1-f][1,2,4]triazin-2-amine] | + (“+” represents a ratio of >2.0 and <10)
9 | ≤ 100 nM | 100 to 1000 nM |  | COC[C@H](C)Nc1ncc2c(N3CCCC3=O)cc([C@H]3CC[C@H](O)CC3)n2n1 [Compound 177] | +++ (“+++” represents a ratio of >100)
10 | ≤ 100 nM | 100 to 1000 nM |  | COC[C@H](C)Nc1ncc2c(N3CC4(COC4)CC3=O)cc([C@H]3CC[C@H](O)CC3)n2n1 [Compound 178] | +++ (“+++” represents a ratio of >100)
11 | ≤ 100 nM | ≤ 100 nM |  | COC[C@H](C)Nc1ncc2c(-c3cccc(CN4CCCC4)c3)cc([C@H]3CC[C@H](O)CC3)n2n1 [Compound 179] | +++ (“+++” represents a ratio of >100)
12 | ≤ 100 nM | ≤ 100 nM |  | COCC(C)Nc1ncc2c(-c3ccc(C(C)N4CCOCC4)cc3)cc(C3CCC(O)CC3)n2n1 (stereo not drawn) [Compound 181] | ++ (“++” represents a ratio of between 10 and 100)
13 | ≤ 100 nM | ≤ 100 nM |  | COCC(C)Nc1ncc2c(-c3ccc(C(C)N4CCOCC4)cc3)cc(C3CCC(O)CC3)n2n1 (stereo not drawn) [Compound 182] | ++ (“++” represents a ratio of between 10 and 100)
14 | ≤ 100 nM | ≤ 100 nM |  | COC[C@H](C)Nc1ncc2c(-c3ccnc(C)c3)cc([C@H]3CC[C@@H](O)CC3)n2n1 [Compound 183] | +++ (“+++” represents a ratio of >100)
15 | ≤ 100 nM | ≤ 100 nM |  | COC[C@H](C)Nc1ncc2c(-c3ccc(C4(N5CCOCC5)CC4)cc3)cc([C@H]3CC[C@H](O)CC3)n2n1 [Compound 184] | ++ (“++” represents a ratio of between 10 and 100)
16 | ≤ 100 nM | ≤ 100 nM | +++ (“+++” represents a ratio of >100) | COC[C@H](C)Nc1ncc2c(-c3cnn(Cc4nnc(C)s4)c3)cc([C@H]3CC[C@H](O)CC3)n2n1 [Compound 596] | 
17 | ≤ 100 nM | ≤ 100 nM | +++ (“+++” represents a ratio of >100) | C[C@@H](COC(F)F)Nc1ncc2c(-c3ccnc(N4CCO[C@@H](C(C)(C)O)C4)c3)cc([C@H]3CC[C@H](O)CC3)n2n1 [Compound 597] | 
18 | ≤ 100 nM | ≤ 100 nM | +++ (“+++” represents a ratio of >100) | C[C@@H](COC(F)F)Nc1ncc2c(-c3ccnc(N4CCOC(C(C)(C)O)C4)c3)cc([C@H]3CC[C@H](O)CC3)n2n1 (stereo partly drawn) [Compound 598] | 
19 | ≤ 100 nM | ≤ 100 nM | +++ (“+++” represents a ratio of >100) | COC[C@H](C)Nc1ncc2c(-c3cnn(C(C)(C)c4nnc(C(F)F)o4)c3)cc([C@H]3CC[C@H](O)CC3)n2n1 [Compound 599] | 
20 | ≤ 100 nM | ≤ 100 nM | +++ (“+++” represents a ratio of >100) | COC[C@H](C)Nc1ncc2c(-c3cnn(C(C)(C)c4nnc(C(C)C)o4)c3)cc([C@H]3CC[C@H](O)CC3)n2n1 [Compound 600] | 
21 | ≤ 100 nM | ≤ 100 nM | +++ (“+++” represents a ratio of >100) | COC[C@H](C)Nc1ncc2c(-c3cnn(C(C)(C)c4nnc([C@@H]5CCCO5)o4)c3)cc([C@H]3CC[C@H](O)CC3)n2n1 [Compound 601] | 
22 | ≤ 100 nM | ≤ 100 nM | +++ (“+++” represents a ratio of >100) | COC[C@H](C)Nc1ncc2c(-c3cnn(C(C)(C)c4nnc([C@H]5CCCO5)o4)c3)cc([C@H]3CC[C@H](O)CC3)n2n1 [Compound 602] | 
23 | ≤ 100 nM | ≤ 100 nM | +++ (“+++” represents a ratio of >100) | COC[C@H](C)Nc1ncc2c(-c3cnn(C(C)(C)c4nnc(C(F)(F)F)o4)c3)cc([C@H]3CC[C@H](O)CC3)n2n1 [Compound 603] | 
24 | ≤ 100 nM | ≤ 100 nM | +++ (“+++” represents a ratio of >100) | COC[C@H](C)Nc1ncc2c(-c3cnn(C(C)(C)c4nnco4)c3)cc([C@H]3CC[C@H](O)CC3)n2n1 [Compound 604] | 
25 | ≤ 100 nM | ≤ 100 nM | +++ (“+++” represents a ratio of >100) | COC[C@H](C)Nc1ncc2c(-c3ccnc(N4CCC(C)(O)CC4)c3)cc([C@H]3CC[C@H](O)CC3)n2n1 [Compound 605] | 

Row | SMILES | IC50 (MERTK) | IC50 (TYRO3) | FLT3/Mer ratio (FLT3 IC50/Mer IC50) (MERTK; [2]) | FLT3/Mer ratio (FLT3 IC50/Mer IC50) (MERTK; [1])
26 | COC[C@H](C)Nc1ncc2c(C3=CC4CCC(C3)N4)cc([C@H]3CC[C@H](O)CC3)n2n1 (stereo partly drawn) [Compound 170] | ≤ 100 nM | ≤ 100 nM |  | +++ (“+++” represents a ratio of >100)
